{"source": "patent US20040018579A1", "about": "“Dye-labelled peptide and method” (priority 2000, published 2004)", "system": "AspN", "experiment": "Endoproteinase AspN cleavage assay", "assay_type": "biochemical", "settings": "2 μM, 500 μl, AspN 100 ng, overnight at ambient temperature, excitation 520 nm, emission 540-750 nm", "description": "The fluorescence intensity of compound A (2 μM, 500 μl volume) in a quartz cuvette was recorded using a spectrofluorimeter. The sample was excited at 520 nm and emission over 540-750 nm recorded. AspN (100 ng, 50 μl volume) was added to the sample in the cuvette, which was stoppered, and kept dark at ambient temperature overnight. The fluorescence intensity was again recorded. […] Tween™ is a trademark of ICI Americas, Inc.", "note": "No end group written: not given here. Cy5Q = cyanine dye quencher coupled to the N-terminus (from Cy5Q-NHS)"}
{"substance": "Cy5Q -Asp-Glu-Val-Asp-Arg-Ser-Gly-Ser-Gly-Ser-Cy3-Ala-Leu-Thr-OH (Cy5Q-DEVDRSGSGS; not fully specified (C-terminus)) [Compound A]", "values": [{"measurement": "Cy3 fluorescence on AspN-catalysed hydrolysis", "value": "increase in Cy3 fluorescence"}]}
